According to patent publication US4032654A, “Water-soluble, liquid concentrates of S-methyl-[(methyl-carbamoyl)oxy]-thioacetimidate and methyl N', N'-dimethyl-N-[(methyl-carbamoyl)oxy]-1-thiooxamimidate” (priority 1975, dated 1977):
In brackets after ≈: the same amount, converted by molar mass. Several values for one entry are separate records, joined by “and”; a condition that tells them apart may be missing. Equal entries are not always repeated. Where two headings read alike, the source gives them in different places.

Legend:
[1] = Procedure: Methomyl and Oxamyl Solubility In Cyclohexanone, Cyclohexanol, CH3 OH and H2 O at -6° C.
Methomyl and oxamyl were dissolved separately and in weight ratios of 1:1, 2:1 and 1:2.5 methomyl to oxamyl in a solvent system consisting of 30 wt. % cyclohexanone, 30 wt. % cyclohexanol, 30 wt. % water and 10 wt. % methanol. These solutions were equilibrated at -6° C. and seeded with methomyl and/or oxamyl crystals. The samples of liquid and solids remained at -6° C. until solid-liquid equilibrium was assured. A liquid sample was removed from each at -6° C. and assayed for methomyl and/or oxamyl. Solids were also isolated at -6° C., washed, dried and dissolved in CH3 OH to yield a 10% solution which was analyzed by TLC to ensure both methomyl and oxamyl crystals were present in the solids of the combination sample. All such solids contained both oxamyl and methomyl.
SOLUBILITY OF METHOMYL AND OXAMYL (2:1, 1:1 and 1:2.5 Wt.
RATIOS) IN CYCLOHEXANONE, CYCLOHEXANOL, CH3 OH AND H2 O

[2] = physchem; settings: for solubility: Oxamyl alone in solvent
Procedure: Methomyl and oxamyl were added to various methanol:water solvent systems ranging from 100% CH3 OH to 40% CH3 OH:60% H2 O. The methomyl and oxamyl were dissolved separately or combined on a 1:1 weight ratio in the solvent systems at room temperature at a concentration exceeding the solubility limit at -6° C. Each sample was seeded with methomyl and/or oxamyl at -6° C. and allowed to crystallize until equilibrium was established. The supernatant liquid of each sample was assayed for methomyl and/or oxamyl by liquid chromatography.

[3] = physchem; settings: for solubility: Oxamyl alone in solvent; remark: listed apart in the source
Procedure: Solubility of Methomyl and Oxamyl (2:1 wt. ratio) in CH3 OH/H2 O at -6° C.
(§1) Methomyl and oxamyl were added to various methanol:water solvent systems ranging from 100 wt. % CH3 OH to 30 wt. % CH3 OH:70 wt. % H2 O. The methomyl and oxamyl were dissolved in a 2:1 weight ratio of 50 wt. % methomyl to 25 wt. % oxamyl in the solvent systems. The samples were equilibrated at -6° C. in a constant temperature freezer after which they were seeded with methomyl and oxamyl crystals to ensure crystallization of both materials. After crystal-liquid equilibrium was assured, liquid was removed at -6° C. and assayed for methomyl and oxamyl. Solids were also removed at -6° C., washed with hexane and dried. The solids were then dissolved in methanol to yield a 10 wt. % solution. This solution was evaluated by thin layer chromatography (TLC) to ensure the solids consisted of both methomyl and oxamyl.

[4] = remark: listed apart in the source
Procedure: Solubility of Methomyl and Oxamyl 80:20 Wt. Ratio Acetone:H2 O
Methomyl and oxamyl were dissolved in a solvent system consisting of 80 wt. % acetone and 20 wt. % water separately and in 1:1, 2:1 and 1:2.5 wt. ratios of methomyl and oxamyl. These solutions were equilibrated at -6° C. and were seeded with methomyl and/or oxamyl. They remained at -6° C. until solid-liquid equilibrium was assured. Liquid was removed from each sample at -6° C. and assayed for methomyl and oxamyl. Solids were also removed at -6° C., washed, dried and dissolved in methanol to yield a 10 wt. % solution which was evaluated by TLC for oxamyl and methomyl.

[5] = remark: listed apart in the source
Procedure: Methomyl and/or oxamyl were added to a solvent system consisting of 60% cyclohexanone, 10% methanol and 30% water at room temperature at a concentration higher than the solubility limit at -6° C. The methomyl and oxamyl were added together, at weight ratios of 2:1, 1:1 and 1:2.5. The solutions were cooled to -6° C. and seeded with methomyl and/or oxamyl to initiate crystallization. The solutions remained at -6° C. until equilibrium was assured. The supernatant liquid in each sample was analyzed for methomyl and oxamyl by liquid chromatography.

[6] = physchem; settings: for solubility: Oxamyl alone in solvent; remark: listed apart in the source
Procedure: as §1, with “The methomyl and oxamyl were dissolved in a 2:1 weight ratio of 50 wt. % methomyl to 25 wt. % oxamyl in the solvent systems.” left out
Solubility of Methomyl and Oxamyl 1:2.5 wt. ratio in CH3 OH:H2 O at -6° C.
Example 3 was repeated by dissolving methomyl and oxamyl in a 1:2.5 weight ratio in the same solvent systems under the same conditions.

## CNC(=O)ON=C(SC)C(=O)N(C)C [Oxamyl, methyl N',N'-dimethyl-N-[(methylcarbamoyl)oxy]-1-thiooxamimidate]
[1]
  Solubility, both actives in solvent: Oxamyl: 83.0 gms/100 gms solvent and 63.7 gms/100 gms solvent and 61.8 gms/100 gms solvent
[1]; alone, 30% cyclohexanone, 30% cyclohexanol, 30% water, 10% methanol, -6° C.
  Solubility, Oxamyl alone in solvent: 41.5 gms/100 gms solvent
[2]
  Solubility, both actives in solvent: Oxamyl: 80 gms/100 gms
[2]; 40/60 ch3oh/h2o, alone, -6° C.
  solubility: 209 mg/mL (≈ 953 mM)
[2]; 50/50 ch3oh/h2o, alone, -6° C.
  solubility: 290 mg/mL (≈ 1320 mM)
[2]; 60/40 ch3oh/h2o, alone, -6° C.
  solubility: 397 mg/mL (≈ 1810 mM)
[2]; 70/30 ch3oh/h2o, alone, -6° C.
  solubility: 422 mg/mL (≈ 1920 mM)
[2]; 80/20 ch3oh/h2o, alone, -6° C.
  solubility: 447 mg/mL (≈ 2040 mM)
[2]; 90/10 ch3oh/h2o, alone, -6° C.
  solubility: 406 mg/mL (≈ 1850 mM)
[2]; alone, 100/0 CH3OH/H2O, -6° C.
  Solubility, Oxamyl alone in solvent: 33.3 gms/100 gms
[2]; summary of Examples 2-7
  Solubility when dissolved together in the solvents taught: increases in solubility occur
[3]
  Solubility, both actives in solvent: Oxamyl: 113 gms/100 gms
[3]; 40/60 ch3oh/h2o, alone, -6° C.
  solubility: 209 mg/mL (≈ 953 mM)
[3]; 50/50 ch3oh/h2o, alone, -6° C.
  solubility: 290 mg/mL (≈ 1320 mM)
[3]; 60/40 ch3oh/h2o, alone, -6° C.
  solubility: 397 mg/mL (≈ 1810 mM)
[3]; 70/30 ch3oh/h2o, alone, -6° C.
  solubility: 422 mg/mL (≈ 1920 mM)
[3]; 80/20 ch3oh/h2o, alone, -6° C.
  solubility: 447 mg/mL (≈ 2040 mM)
[3]; 90/10 ch3oh/h2o, alone, -6° C.
  solubility: 406 mg/mL (≈ 1850 mM)
[3]; alone, 100/0 CH3OH/H2O, -6° C.
  Solubility, Oxamyl alone in solvent: 33.3 gms/100 gms
[3]; methanol:water solvent systems, 2:1 wt. ratio dissolved initially, -6° C.
  Solubility change when dissolved in combination: increased
[4]
  Solubility, both actives in solvent: Oxamyl: 84.6 gms/100 gms solvent and 79.3 gms/100 gms solvent and 82.8 gms/100 gms solvent
[4]; alone, 80:20 wt acetone/H2O, -6° C.
  Solubility, Oxamyl alone in solvent: 52.0 gms/100 gms solvent
[5]
  Solubility, both actives in solvent: Oxamyl: 84.8 gms/100 gms solvent and 80.1 gms/100 gms solvent and 82.7 gms/100 gms solvent
[5]; alone, 60% cyclohexanone, 10% methanol, 30% water, -6° C.
  Solubility, Oxamyl alone in solvent: 48.4 gms/100 gms solvent
[6]
  Solubility, both actives in solvent: Oxamyl: 72.3 gms/100 gms
[6]; 40/60 ch3oh/h2o, alone, -6° C.
  solubility: 209 mg/mL (≈ 953 mM)
[6]; 50/50 ch3oh/h2o, alone, -6° C.
  solubility: 291 mg/mL (≈ 1330 mM)
[6]; 60/40 ch3oh/h2o, alone, -6° C.
  solubility: 396 mg/mL (≈ 1810 mM)
[6]; 70/30 ch3oh/h2o, alone, -6° C.
  solubility: 423 mg/mL (≈ 1930 mM)
[6]; 80/20 ch3oh/h2o, alone, -6° C.
  solubility: 448 mg/mL (≈ 2040 mM)
[6]; 90/10 ch3oh/h2o, alone, -6° C.
  solubility: 404 mg/mL (≈ 1840 mM)
[6]; alone, 100/0 CH3OH/H2O, -6° C.
  Solubility, Oxamyl alone in solvent: 33.3 gms/100 gms
